Laboratory results published in US10632195B2, “Pharmaceutical device for electric-field assisted administration of Tapentadol and method of administering Tapentadol with same” (Gruenenthal GmbH, priority 2012, dated 2020).
Several values for one entry are separate records, joined by “and”; a condition that tells them apart may be missing. Equal values may be shown once. Where a name gives a salt, the structure may show the parent alone.

How the values were obtained:
[1] = iontophoretic transdermal delivery of Tapentadol hydrochloride, 8 hours of iontophoresis (example 1a), side-bi-side diffusion cells, constant current 0.25 mA (0.4 mA/cm2), donor 100 mM in water; type: in vitro ADME, pig; settings: for drug flux across the skin, Mean ± SD / drug flux across the skin, as tapentadol base, Mean ± SD / cumulative, iontophoretic delivery across the skin, Mean ± SD / cumulative, iontophoretic delivery across the skin, as tapentadol base, Mean ± SD: n=6; for drug flux across the skin, Mean ± SD / drug flux across the skin, as tapentadol base, Mean ± SD / cumulative, iontophoretic delivery across the skin, Mean ± SD / cumulative, iontophoretic delivery across the skin, as tapentadol base, Mean ± SD / drug flux across the skin / cumulative, iontophoretic delivery across the skin: patch area 0.64 cm^2; for drug flux across the skin / cumulative, iontophoretic delivery across the skin: single cells 1-6, hydrochloride
Method: Determination of the rate of iontophoretic transdermal delivery of Tapentadol hydrochloride for a period of 8 hours of iontophoresis
Tapentadol hydrochloride (batch no. A0012) was employed. The components of the phosphate buffered saline (PBS) and the mobile phase used were from Sigma, UK. The pig skin was obtained from a local farm, washed with water, excess hair was carefully trimmed with scissors, and the skin was dermatomed using a Zimmer dermatome set at a nominal thickness of 750 μm. The skin was then stored at −20° C.
The drug was delivered from the anode, using side-bi-side (horizontal) glass diffusion cells (n=6) supplied by Permegear, USA. The porcine skin membrane was excised from the dorsal surface.
Electrodes were prepared in-house and were made of silver/silver chloride. To pass current for 24 hours in this set-up, it was necessary for the donor compartment to contain 76 mM chloride ions.
(§1) The anode was placed in the donor chamber; the donor solution was 3 ml of Tapentadol hydrochloride (100 mM, i.e. 25.78 mg/ml of Tapentadol hydrochloride, 22.13 mg/ml of base) in water. The cathode was placed in the receptor chamber, which contained 3 ml of phosphate-buffered saline, pH 7.4. Both chambers were stirred by magnets.
Current was applied for a total of 8 or 24 hours, respectively.
The receptor solution was sampled and assayed at 0.5, 1, 2, 3, 4, 5, 6, 7, 8 (example 1a) and optionally 24 hours (example 1b) post-initiation of the current. During the 8 hour experiment (example 1a), at 0.5, 1, 2, and 3 hours, 1 ml of receptor solution was removed and replaced with fresh PBS. As it was clear that the amount of Tapentadol in the receptor solution was sufficient for quantitation by HPLC, at the subsequent sampling times of 4, 5, 6, 7 and 8 hours, the entire receptor solution (3 ml) was removed and replaced with fresh PBS, to ensure sink conditions in the receptor. During the 24 hour experiment (example 1b), the entire receptor solution (3 ml) was removed and replaced with fresh PBS at every sampling point.
The concentrations of Tapentadol hydrochloride in the receptor chamber samples were determined by HPLC. A mobile phase consisting of 300:700:1 methanol:water:phosphoric acid was pumped (1 ml/min) through a Acclaim RP-18 (4×150 mm) reverse-phase column (Dionex, UK) at 35° C. Tapentadol concentrations were quantified via their UV absorbance at 215 nm using a calibration curve diluted in PBS at pH 7.4. Injection volume was 20 μl and the retention time for Tapentadol hydrochloride was 12 minutes and the total run time was 16 minutes.
A Tapentadol-free “blank” diffusion cell (donor was saline only) was also prepared and the receptor solution was analysed after 8 hours to confirm no peaks from any component of the skin co-eluted with the Tapentadol hydrochloride.
(§2) Voltages were as expected for 6 cells in series (range was 6 to 28 volts). The pH of the donor solution was measured after termination of 24 hours of iontophoresis, and ranged from 6.47 to 6.99. The pH of drug in the donor prior to commencing the experiment was 5.07 (5.34 for the 8 hour iontophoresis).

[2] = pH of the donor solution (Tapentadol hydrochloride 100 mM in water) before and after iontophoresis; type: physicochemical
Method: as §1, §2

CC[C@@H](c1cccc(O)c1)[C@@H](C)CN(C)C [Tapentadol hydrochloride]
drug flux across the skin, Mean ± SD ([1]; 0.5 h, iontophoresis): 8 ± 8 µg/h | drug flux across the skin, as tapentadol base, Mean ± SD ([1]; 0.5 h, iontophoresis): 7 ± 6 µg/h | cumulative, iontophoretic delivery across the skin, Mean ± SD ([1]; 0.5 h): 4 ± 4 µg | cumulative, iontophoretic delivery across the skin, as tapentadol base, Mean ± SD ([1]; 0.5 h): 3 ± 3 µg | drug flux across the skin, Mean ± SD ([1]; 1 h, iontophoresis): 56 ± 28 µg/h | drug flux across the skin, as tapentadol base, Mean ± SD ([1]; 1 h, iontophoresis): 48 ± 24 µg/h | cumulative, iontophoretic delivery across the skin, Mean ± SD ([1]; 1 h): 32 ± 18 µg | cumulative, iontophoretic delivery across the skin, as tapentadol base, Mean ± SD ([1]; 1 h): 28 ± 15 µg | drug flux across the skin, Mean ± SD ([1]; 2 h, iontophoresis): 115 ± 25 µg/h | drug flux across the skin, as tapentadol base, Mean ± SD ([1]; 2 h, iontophoresis): 98 ± 21 µg/h | drug flux across the skin ([1]; 2 h, iontophoresis): 104 µg/h and 162 µg/h and 119 µg/h and 112 µg/h and 90 µg/h and 102 µg/h | cumulative, iontophoretic delivery across the skin, Mean ± SD ([1]; 2 h): 147 ± 40 µg | cumulative, iontophoretic delivery across the skin, as tapentadol base, Mean ± SD ([1]; 2 h): 126 ± 35 µg | cumulative, iontophoretic delivery across the skin ([1]; 2 h): 216 µg and 173 µg and 128 µg and 127 µg | drug flux across the skin, Mean ± SD ([1]; 3 h, iontophoresis): 193 ± 31 µg/h | drug flux across the skin, as tapentadol base, Mean ± SD ([1]; 3 h, iontophoresis): 166 ± 26 µg/h | drug flux across the skin ([1]; 3 h, iontophoresis): 190 µg/h and 201 µg/h and 222 µg/h and 184 µg/h and 139 µg/h and 220 µg/h | cumulative, iontophoretic delivery across the skin, Mean ± SD ([1]; 3 h): 340 ± 62 µg | cumulative, iontophoretic delivery across the skin, as tapentadol base, Mean ± SD ([1]; 3 h): 291 ± 54 µg | cumulative, iontophoretic delivery across the skin ([1]; 3 h): 321 µg and 417 µg and 396 µg and 312 µg and 244 µg and 347 µg | drug flux across the skin, Mean ± SD ([1]; 4 h, iontophoresis): 228 ± 23 µg/h | drug flux across the skin, as tapentadol base, Mean ± SD ([1]; 4 h, iontophoresis): 196 ± 20 µg/h | drug flux across the skin ([1]; 4 h, iontophoresis): 229 µg/h and 257 µg/h and 209 µg/h and 250 µg/h and 196 µg/h | cumulative, iontophoretic delivery across the skin, Mean ± SD ([1]; 4 h): 568 ± 68 µg | cumulative, iontophoretic delivery across the skin, as tapentadol base, Mean ± SD ([1]; 4 h): 487 ± 58 µg | cumulative, iontophoretic delivery across the skin ([1]; 4 h): 550 µg and 674 µg and 624 µg and 522 µg and 494 µg and 543 µg | drug flux across the skin, Mean ± SD ([1]; 5 h, iontophoresis): 246 ± 30 µg/h | drug flux across the skin, as tapentadol base, Mean ± SD ([1]; 5 h, iontophoresis): 211 ± 26 µg/h | drug flux across the skin ([1]; 5 h, iontophoresis): 242 µg/h and 305 µg/h and 234 µg/h and 238 µg/h and 240 µg/h and 217 µg/h | cumulative, iontophoretic delivery across the skin, Mean ± SD ([1]; 5 h): 814 ± 92 µg | cumulative, iontophoretic delivery across the skin, as tapentadol base, Mean ± SD ([1]; 5 h): 699 ± 79 µg | cumulative, iontophoretic delivery across the skin ([1]; 5 h): 792 µg and 979 µg and 859 µg and 759 µg and 734 µg and 760 µg | drug flux across the skin, Mean ± SD ([1]; 6 h, iontophoresis): 244 ± 18 µg/h | drug flux across the skin, as tapentadol base, Mean ± SD ([1]; 6 h, iontophoresis): 209 ± 15 µg/h | drug flux across the skin ([1]; 6 h, iontophoresis): 247 µg/h and 275 µg/h and 245 µg/h and 225 µg/h and 242 µg/h and 228 µg/h | cumulative, iontophoretic delivery across the skin, Mean ± SD ([1]; 6 h): 1057 ± 107 µg | cumulative, iontophoretic delivery across the skin, as tapentadol base, Mean ± SD ([1]; 6 h): 908 ± 92 µg | cumulative, iontophoretic delivery across the skin ([1]; 6 h): 1040 µg and 1253 µg and 1104 µg and 984 µg and 976 µg and 988 µg | drug flux across the skin, Mean ± SD ([1]; 7 h, iontophoresis): 261 ± 26 µg/h | drug flux across the skin, as tapentadol base, Mean ± SD ([1]; 7 h, iontophoresis): 224 ± 22 µg/h | drug flux across the skin ([1]; 7 h, iontophoresis): 264 µg/h and 295 µg/h and 271 µg/h and 260 µg/h and 261 µg/h and 215 µg/h | cumulative, iontophoretic delivery across the skin, Mean ± SD ([1]; 7 h): 1319 ± 128 µg | cumulative, iontophoretic delivery across the skin, as tapentadol base, Mean ± SD ([1]; 7 h): 1132 ± 110 µg | cumulative, iontophoretic delivery across the skin ([1]; 7 h): 1304 µg and 1548 µg and 1375 µg and 1244 µg and 1237 µg and 1203 µg | drug flux across the skin, Mean ± SD ([1]; 8 h, iontophoresis): 260 ± 46 µg/h | drug flux across the skin, as tapentadol base, Mean ± SD ([1]; 8 h, iontophoresis): 224 ± 40 µg/h | drug flux across the skin ([1]; 8 h, iontophoresis): 260 µg/h and 353 µg/h and 241 µg/h and 234 µg/h and 242 µg/h and 232 µg/h | cumulative, iontophoretic delivery across the skin, Mean ± SD ([1]; 8 h): 1579 ± 171 µg | cumulative, iontophoretic delivery across the skin, as tapentadol base, Mean ± SD ([1]; 8 h): 1356 ± 147 µg | cumulative, iontophoretic delivery across the skin ([1]; 8 h): 1564 µg and 1901 µg and 1616 µg and 1479 µg and 1435 µg | time by which steady-state flux appears to have been reached ([1]; example 1a, iontophoresis): 5 to 6 h | pH of drug in the donor ([2]; prior to commencing the experiment (8 hour iontophoresis)): 5.34 | pH of drug in the donor ([2]; prior to commencing the experiment (24 hour iontophoresis)): 5.07
